Data: paper doi:10.1101/2022.10.27.513961v1 (bioRxiv, 2022)
Where a SMILES comes first, the peptide text is derived from it. Bridges are numbered along the chain shown (N, C = ends).

Tests used:
Type in all cases: cell-based
[1] = system: HT144 cells; test: Cytotoxicity, resazurin assay; settings: HT144, cTI 0.5 to 3 µM over 100 days
[2] = system: WM164 cells; test: Microscopy during long-term treatment; settings: WM164, after 2 µM cTI for one week
[3] = system: HT144 cells; test: Microscopy during long-term treatment; settings: HT144, treatment with cTI for 100 days
[4] = system: WM164 cells; test: Real-time cell analysis, xCELLigence impedance
[5] = system: HT144 cells; test: Real-time cell analysis, xCELLigence impedance
[6] = system: WM164 cells; test: Co-treatment of dabrafenib with peptide, resazurin assay; settings: drug-naïve WM164, drug (50 nM) or peptide (at IC50) added alone, 72 h
[7] = system: WM164 cells; test: Cytotoxicity, resazurin assay
[8] = system: WM164 cells; test: Lipidome analysis, shotgun tandem MS of lipid extracts

CC[C@H](C)[C@@H]1NC(=O)CNC(=O)[C@H](CCCNC(=N)N)NC(=O)[C@H](Cc2ccc(O)cc2)NC(=O)[C@@H]2CSSC[C@H](NC1=O)C(=O)N[C@@H](Cc1ccc(O)cc1)C(=O)N[C@@H](CCCNC(=N)N)C(=O)N[C@@H](CCCNC(=N)N)C(=O)N[C@H]1CSSC[C@H](NC(=O)[C@H](Cc3c[nH]c4ccccc34)NC(=O)[C@H](CCCCN)NC(=O)CNC(=O)[C@H](CCCNC(=N)N)NC1=O)C(=O)N[C@@H](Cc1ccccc1)C(=O)N[C@@H](CCCNC(=N)N)C(=O)N[C@@H](C(C)C)C(=O)N2 [cTI, cyclic tachyplesin I] (cyclo(CFRVCYRGICYRRCRGKW); disulfide 1-14, 5-10)
development of resistance [1]: did not develop resistance
cell morphology [2]: more elongated and less dendritic
cell morphology [3]: remained unchanged
reduction in impedance signal ([4]; 5 µM, 24 h): ~50%
time to drop in the impedance to ∼0 ([4]; 10 µM): 2 to 3 h
cell proliferation ([4]; 10^4 WM164 cells seeded for 24 h, 5 µM): ~50%
reduction in impedance signal ([5]; 5 µM, 24 h): ~50%
time to drop in the impedance to ∼0 ([5]; 10 µM): 2 to 3 h
cell death [6]: ~ 50%
cell death ([7]; 5 x10^3 WM164 cells seeded for 24 h, 3 µM peptide, resazurin): 50%
development of resistance ([7]; WM164, cTI 0.5 to 3 µM over 100 days): did not develop resistance
PC 30:0, Mean nmol/M cells ([8]; WM164, 1µM cTI_15d): 0.78 nmol/M cells
PC 30:1, Mean nmol/M cells ([8]; WM164, 1µM cTI_15d): 0.42 nmol/M cells
PC 32:0, Mean nmol/M cells ([8]; WM164, 1µM cTI_15d): 0.50 nmol/M cells
PC 32:1, Mean nmol/M cells ([8]; WM164, 1µM cTI_15d): 3.15 nmol/M cells
PC 32:2, Mean nmol/M cells ([8]; WM164, 1µM cTI_15d): 0.38 nmol/M cells
PC 34:1, Mean nmol/M cells ([8]; WM164, 1µM cTI_15d): 5.61 nmol/M cells
PC 34:2, Mean nmol/M cells ([8]; WM164, 1µM cTI_15d): 2.35 nmol/M cells
PC 36:1, Mean nmol/M cells ([8]; WM164, 1µM cTI_15d): 0.86 nmol/M cells
PC 36:2, Mean nmol/M cells ([8]; WM164, 1µM cTI_15d): 3.56 nmol/M cells
PE 32:1, Mean nmol/M cells ([8]; WM164, 1µM cTI_15d): 0.21 nmol/M cells
PE 34:1, Mean nmol/M cells ([8]; WM164, 1µM cTI_15d): 0.89 nmol/M cells
PE 34:2, Mean nmol/M cells ([8]; WM164, 1µM cTI_15d): 0.71 nmol/M cells
PE 36:1, Mean nmol/M cells ([8]; WM164, 1µM cTI_15d): 0.75 nmol/M cells
PE 36:2, Mean nmol/M cells ([8]; WM164, 1µM cTI_15d): 1.48 nmol/M cells
PE 36:3, Mean nmol/M cells ([8]; WM164, 1µM cTI_15d): 0.19 nmol/M cells
PE 38:4, Mean nmol/M cells ([8]; WM164, 1µM cTI_15d): 0.27 nmol/M cells
PE 38:5, Mean nmol/M cells ([8]; WM164, 1µM cTI_15d): 0.26 nmol/M cells
PE 40:6, Mean nmol/M cells ([8]; WM164, 1µM cTI_15d): 0.16 nmol/M cells
PI 34:1, Mean nmol/M cells ([8]; WM164, 1µM cTI_15d): 0.42 nmol/M cells
PI 34:2, Mean nmol/M cells ([8]; WM164, 1µM cTI_15d): 0.29 nmol/M cells
PI 36:1, Mean nmol/M cells ([8]; WM164, 1µM cTI_15d): 1.12 nmol/M cells
PI 36:2, Mean nmol/M cells ([8]; WM164, 1µM cTI_15d): 1.12 nmol/M cells
PI 38:2, Mean nmol/M cells ([8]; WM164, 1µM cTI_15d): 0.19 nmol/M cells
PI 38:3, Mean nmol/M cells ([8]; WM164, 1µM cTI_15d): 0.34 nmol/M cells
PI 38:4, Mean nmol/M cells ([8]; WM164, 1µM cTI_15d): 0.64 nmol/M cells
PI 38:5, Mean nmol/M cells ([8]; WM164, 1µM cTI_15d): 0.22 nmol/M cells
PC 30:0, Mean nmol/M cells ([8]; WM164, 2µM cTI_60d): 0.51 nmol/M cells
PC 30:1, Mean nmol/M cells ([8]; WM164, 2µM cTI_60d): 0.27 nmol/M cells
PC 32:0, Mean nmol/M cells ([8]; WM164, 2µM cTI_60d): 0.34 nmol/M cells
PC 32:1, Mean nmol/M cells ([8]; WM164, 2µM cTI_60d): 1.93 nmol/M cells
PC 32:2, Mean nmol/M cells ([8]; WM164, 2µM cTI_60d): 0.26 nmol/M cells
PC 34:1, Mean nmol/M cells ([8]; WM164, 2µM cTI_60d): 4.19 nmol/M cells
PC 34:2, Mean nmol/M cells ([8]; WM164, 2µM cTI_60d): 1.64 nmol/M cells
PC 36:1, Mean nmol/M cells ([8]; WM164, 2µM cTI_60d): 0.82 nmol/M cells
PC 36:2, Mean nmol/M cells ([8]; WM164, 2µM cTI_60d): 2.77 nmol/M cells
PE 32:1, Mean nmol/M cells ([8]; WM164, 2µM cTI_60d): 0.16 nmol/M cells
PE 34:1, Mean nmol/M cells ([8]; WM164, 2µM cTI_60d): 0.68 nmol/M cells
PE 34:2, Mean nmol/M cells ([8]; WM164, 2µM cTI_60d): 0.71 nmol/M cells
PE 36:1, Mean nmol/M cells ([8]; WM164, 2µM cTI_60d): 0.78 nmol/M cells
PE 36:2, Mean nmol/M cells ([8]; WM164, 2µM cTI_60d): 1.83 nmol/M cells
PE 36:3, Mean nmol/M cells ([8]; WM164, 2µM cTI_60d): 0.19 nmol/M cells
PE 38:4, Mean nmol/M cells ([8]; WM164, 2µM cTI_60d): 0.28 nmol/M cells
PE 38:5, Mean nmol/M cells ([8]; WM164, 2µM cTI_60d): 0.27 nmol/M cells
PE 40:6, Mean nmol/M cells ([8]; WM164, 2µM cTI_60d): 0.17 nmol/M cells
PI 34:1, Mean nmol/M cells ([8]; WM164, 2µM cTI_60d): 0.25 nmol/M cells
PI 34:2, Mean nmol/M cells ([8]; WM164, 2µM cTI_60d): 0.17 nmol/M cells
PI 36:1, Mean nmol/M cells ([8]; WM164, 2µM cTI_60d): 0.80 nmol/M cells
PI 36:2, Mean nmol/M cells ([8]; WM164, 2µM cTI_60d): 0.73 nmol/M cells
PI 38:2, Mean nmol/M cells ([8]; WM164, 2µM cTI_60d): 0.18 nmol/M cells
PI 38:3, Mean nmol/M cells ([8]; WM164, 2µM cTI_60d): 0.26 nmol/M cells
PI 38:4, Mean nmol/M cells ([8]; WM164, 2µM cTI_60d): 0.46 nmol/M cells
PI 38:5, Mean nmol/M cells ([8]; WM164, 2µM cTI_60d): 0.12 nmol/M cells
PC 30:0, Mean nmol/M cells ([8]; WM164, 3µM cTI_100d): 0.74 nmol/M cells
PC 30:1, Mean nmol/M cells ([8]; WM164, 3µM cTI_100d): 0.44 nmol/M cells
PC 32:0, Mean nmol/M cells ([8]; WM164, 3µM cTI_100d): 0.42 nmol/M cells
PC 32:1, Mean nmol/M cells ([8]; WM164, 3µM cTI_100d): 3.17 nmol/M cells
PC 32:2, Mean nmol/M cells ([8]; WM164, 3µM cTI_100d): 0.42 nmol/M cells
PC 34:1, Mean nmol/M cells ([8]; WM164, 3µM cTI_100d): 5.27 nmol/M cells
PC 34:2, Mean nmol/M cells ([8]; WM164, 3µM cTI_100d): 2.18 nmol/M cells
PC 36:1, Mean nmol/M cells ([8]; WM164, 3µM cTI_100d): 0.90 nmol/M cells
PC 36:2, Mean nmol/M cells ([8]; WM164, 3µM cTI_100d): 2.89 nmol/M cells
PE 32:1, Mean nmol/M cells ([8]; WM164, 3µM cTI_100d): 0.26 nmol/M cells
PE 34:1, Mean nmol/M cells ([8]; WM164, 3µM cTI_100d): 1.09 nmol/M cells
PE 34:2, Mean nmol/M cells ([8]; WM164, 3µM cTI_100d): 1.08 nmol/M cells
PE 36:1, Mean nmol/M cells ([8]; WM164, 3µM cTI_100d): 1.00 nmol/M cells
PE 36:2, Mean nmol/M cells ([8]; WM164, 3µM cTI_100d): 2.05 nmol/M cells
PE 36:3, Mean nmol/M cells ([8]; WM164, 3µM cTI_100d): 0.26 nmol/M cells
PE 38:4, Mean nmol/M cells ([8]; WM164, 3µM cTI_100d): 0.33 nmol/M cells
PE 38:5, Mean nmol/M cells ([8]; WM164, 3µM cTI_100d): 0.35 nmol/M cells
PE 40:6, Mean nmol/M cells ([8]; WM164, 3µM cTI_100d): 0.19 nmol/M cells
PI 34:1, Mean nmol/M cells ([8]; WM164, 3µM cTI_100d): 0.48 nmol/M cells
PI 34:2, Mean nmol/M cells ([8]; WM164, 3µM cTI_100d): 0.30 nmol/M cells
PI 36:1, Mean nmol/M cells ([8]; WM164, 3µM cTI_100d): 1.26 nmol/M cells
PI 36:2, Mean nmol/M cells ([8]; WM164, 3µM cTI_100d): 1.19 nmol/M cells
PI 38:2, Mean nmol/M cells ([8]; WM164, 3µM cTI_100d): 0.23 nmol/M cells
PI 38:3, Mean nmol/M cells ([8]; WM164, 3µM cTI_100d): 0.35 nmol/M cells
PI 38:4, Mean nmol/M cells ([8]; WM164, 3µM cTI_100d): 0.61 nmol/M cells
PI 38:5, Mean nmol/M cells ([8]; WM164, 3µM cTI_100d): 0.22 nmol/M cells
